Assay results published in US12721832B2, “Anti-senescence plant polyphenol drug downregulating senescence-related secretory phenotype and use thereof” (BYHEALTH CO., LTD., priority 2021, dated 2026).

Tests used:
[1] = tested on: PC3/PSC27 xenograft tumors; test: PC3/PSC27 xenograft tumor terminal volume in NOD/SCID mice; type: in vivo; details: for tumor volume, drug used alone: chemotherapeutic drug alone; for tumor volume, drug administered together with PCC1: chemotherapeutic drug combined with PCC1, end of 8th week
Excerpt: Every two weeks was a dosing cycle, and MIT (mitoxantrone) was intraperitoneally administered to the mice on the first day of the 3rd/5th/7th weeks. From the first day of the 5th week, the mice were intraperitoneally administrated with PCC1, once a week. After the 8-week course of treatment, the mice were dissected for pathological identification and expression analysis.
Chemotherapeutic drug MIT alone or together with anti-senescence drug PCC1 was used to administer mice, and after the 8th week, the tumor size of each group was compared and analyzed.
All experimental mouse experiments were carried out in strict accordance with the relevant regulations of the Institutional Animal Care and Use Committee (IACUC), Shanghai Institutes for Biological Sciences, Chinese Academy of Sciences. Immunodeficient mice (NOD-SCID mice, ICR) (body weight about 25 g) aged 6-8 weeks were used for animal experiments related to the present patent. Stromal cells PSC27 and epithelial cells PC3 were mixed at a predetermined ratio of 1:4, and each graft contained 1.25×10^6 cells for tissue remodeling. The xenograft tumors were implanted into mice by subcutaneous transplantation, and the animals were euthanized 8 weeks after the end of the transplantation surgery. Tumor volume was calculated according to the following formula: V=(π/6)×[…] (V, volume; l, length; w, width).
(§1) In a preclinical treatment trial, subcutaneously transplanted mice were fed with a standard experimental diet, after 2 weeks chemotherapy drugs mitoxantrone (MIT, dose: 0.2 mg/kg) and/or procyanidin C1 (PCC1) (500 μl, dose: 10 mg/kg) via intraperitoneal administration. The time points were: the former was administrated on the first day of the 3rd, 5th and 7th weeks, and the latter was administrated on the first day of the 5th and 7th weeks. A total of 3 cycles of MIT administration were carried out throughout the course of treatment, and each cycle lasted for 2 weeks. After the course of treatment, mouse tumors were harvested for volume measurement and histological analysis. Each mouse cumulatively received 0.6 mg/kg body weight of MIT and […] body weight of PCC1. In order to cause systemic expression of SASP factor induced by chemotherapy, MIT was administered to mice through […] according to the above steps and sequence, but the dose was reduced to 0.1 mg/kg body weight/each time (the cumulative dose of MIT received in the whole course of treatment was 0.3 mg/kg body weight) to reduce drug-related toxicity. The chemotherapy experiment ended at the end of the 8th week, and the mice were dissected immediately after sacrifice, and the xenograft tumors were collected and used for pathological system analysis.

[2] = tested on: cancer cells in the lesion; test: DNA damage and apoptosis in tumor lesions (LCM, caspase 3 cleavage IHC); type: in vivo, mice; details: single agent vs placebo, 7 days after first PCC1 administration
Excerpt: The signals of Caspase 3 cleaved […] in the lesion of each group of mice were in sharp contrast. Scale bar, 200 μm.
To investigate mechanisms directly supporting this senescence-associated pattern with expression and reversal of SASP in MIT-administered mice, we dissected tumors in animals treated with both drugs 7 days after the first PCC1 administration, and the time point of 7 days after administration was selected mainly because drug-resistant clones had not yet formed in cancer cells in the lesion at this time. […] As supporting evidence, when PCC1 was applied during treatment, caspase 3 cleavage activity was increased, which was a typical hallmark of apoptosis (FIG. 29).

[3] = tested on: SASP factors; test: LCM and qRT-PCR of SASP factors in mouse lesions; type: in vivo, mice; details: MIT, mainly in stromal cells
Procedure: The stromal cells and cancer cells were specifically separated by LCM technology, total RNA was prepared and used for SASP expression detection. A P>0.05; *, P<0.05; **, P<0.01; ***, P<0.001.
as §1, with “The chemotherapy experiment ended at the end of the 8th week, and the mice were dissected immediately after sacrifice, and the xenograft tumors were collected and used for pathological system analysis.” left out

[4] = tested on: senescent cells in tumor tissue; test: SA-β-Gal staining of tumor tissue in PC3/PSC27 tumor-bearing mice; type: in vivo; details: MIT alone
Procedure: Representative pictures after SA-β-Gal staining. Scale bar, 100 μm.
A P>0.05; **, P<0.01; ***, P<0.001.
as §1, with “The chemotherapy experiment ended at the end of the 8th week, and the mice were dissected immediately after sacrifice, and the xenograft tumors were collected and used for pathological system analysis.” left out

[5] = tested on: senescent human preadipocytes; details: cited from earlier work
[6] = tested on: IMR90 fetal lung fibroblast-like cell lines; details: culture-adapted; cited from earlier work
[7] = tested on: HUVECs; details: cited from earlier work
[8] = tested on: senescent primary human lung fibroblasts; details: cited from earlier work
[9] = tested on: senescent PSC27 cells; test: Caspase 3/7 activity / drug-induced apoptosis in senescent cells; type: cell-based, human; details: QVD-OPh, 50 μM PCC1
Procedure: PSC27 cells gradually entered the senescent stage after being treated with BLEO for 12 hours under culture conditions. 50 μM PCC1 was added to the medium of senescent cells starting from day 7, NucLight Rapid Red reagent was used to label the cells, and caspase 3/7 reagent (IncuCyte) was used for apoptosis detection. Caspase 3/7 activity was detected every 4 hours (n=3).
Statistical differences are obtained by two-way ANOVA (Turkey' test).
PSC27 cells were plated in a 96-well dish, and the cells were induced to senescence under the treatment of 50 μg/mL BLEO. PCC1 and ABT263 were added at concentrations of 50 μM and 1.0 μM, respectively. Cell culture medium was supplemented with Incucyte Nuclight fast Red Reagent (Essen Bioscience) and Incucyte C-3/7 Apoptosis Reagent (Essen Bioscience). Representative field of view was selected to take pictures.

[10] = tested on: PSC27 cells; test: Bleomycin-induced senescence of PSC27 stromal cells (SA-β-Gal, BrdU, DDR foci staining); type: cell-based, human
Procedure: The primary normal human prostate stromal cell line PSC27 (obtained from Fred Hutchinson Cancer Research Center, USA) was cultured in an incubator at 37° C. and 5% CO2, and proliferated and passaged in PSCC complete culture medium.
To cause cell damage, 50 μg/mL bleomycin (BLEO) was added to the culture medium when PSC27 cells grew to 80% (abbreviated as […]). After 12 hours of drug treatment, the cells were simply washed 3 times with PBS, left in the culture medium for 7-10 days, and then the subsequent experiments were performed.
For immunofluorescent staining, target cells were preseeded on coverslips for at least 24 h after culture in dishes. After a brief wash, the cells were fixed with 4% paraformaldehyde in PBS for 8 min and blocked with 5% normal goat serum (NGS, Thermo Fisher) for 30 min. Mouse monoclonal antibody-anti-phospho-Histone H2A.X (Ser139) (clone JBW301, Millipore) and mouse monoclonal antibody-anti-BrdU (Cat# 347580, BD Biosciences), and secondary antibody Alexa Fluor® 488 (or 594)-Eurolink's F(ab')2 were sequentially added to the slides coated with the fixed cells. Nuclei were counterstained with 2 μg/m DAPI. The most representative image was selected from the three observation fields for data analysis and result display. FV1000 laser scanning confocal microscope (Olympus) was used to acquire confocal fluorescence images of cells.
Senescence-associated (3-galactosidase (SA-β-Gal) staining was performed following a previously reported procedure (Debacq-Chainiaux et al., 2009). Briefly, cells in culture dishes were washed with PBS and fixed at room temperature. Cells were fixed in 2% formaldehyde and 0.2% glutaraldehyde for 3 minutes. SA-β-Gal was used for staining with freshly prepared staining solution overnight at 37° C. Images were taken on the next day and the percentage of positive cells per unit area was calculated.

Molecule: CC(=O)O[C@@]12CO[C@@H]1C[C@H](O)[C@@]1(C)C(=O)[C@H](O)C3=C(C)[C@@H](OC(=O)[C@H](O)[C@@H](NC(=O)OC(C)(C)C)c4ccccc4)C[C@@](O)([C@@H](OC(=O)c4ccccc4)[C@H]21)C3(C)C [DOC, docetaxel]
- tumor volume, drug used alone ([1]; end of 8th week): could reduce the tumor volume
- tumor volume, drug administered together with PCC1 [1]: no further tumor shrinkage

Molecule: COc1cccc2c1C(=O)c1c(O)c3c(c(O)c1C2=O)C[C@@](O)(C(=O)CO)C[C@@H]3O[C@H]1C[C@H](N)[C@H](O)[C@H](C)O1 [DOX, doxorubicin]
- tumor volume, drug administered together with PCC1 [1]: could roughly repeat the significant effect

Molecule: O=C1c2c(O)ccc(O)c2C(=O)c2c(NCCNCCO)ccc(NCCNCCO)c21 [MIT, mitoxantrone, reference compound]
- degree of DNA damage and apoptosis [2]: significant increase
- expression of SASP factors (IL6, CXCL8, SPINK1, WNT16B, GM-CSF, MMP3, IL1α) and p16INK4A in lesions [3]: significantly elevated
- senescent cells in tumor tissue [4]: induced the appearance of a large number of senescent cells
- reduction in tumor size compared to placebo ([1]; single agent, i.p., end of 8th week): 44.0%

Molecule: CC1(C)CCC(c2ccc(Cl)cc2)=C(CN2CCN(c3ccc(C(=O)NS(=O)(=O)c4ccc(N[C@H](CCN5CCOCC5)CSc5ccccc5)c(S(=O)(=O)C(F)(F)F)c4)cc3)CC2)C1 [Navitoclax]
- ability to target senescent cells [5]: not
- ability to target senescent cells [6]: can target and kill senescent cells
- ability to target senescent cells [7]: able to target
- ability to target senescent cells [8]: less effective

Molecule: CC(C)[C@H](NC(=O)c1ccc2ccccc2n1)C(=O)N[C@@H](CC(=O)O)C(=O)COc1c(F)cccc1F [QVD, reference compound]
- effect of pan-caspase inhibitor on senolytic activity of PCC1 [9]: could prevent the killing of senescent cells by PCC1

Molecule: CC[C@]1(O)C[C@H]2CN(CCc3c([nH]c4ccccc34)[C@@](C(=O)OC)(c3cc4c(cc3OC)N(C=O)[C@H]3[C@@](O)(C(=O)OC)[C@H](OC(C)=O)[C@]5(CC)C=CCN6CC[C@]43[C@@H]65)C2)C1 [VIN, vincristine]
- tumor volume, drug used alone ([1]; end of 8th week): could reduce the tumor volume
- tumor volume, drug administered together with PCC1 [1]: no further tumor shrinkage

Molecule: bleomycin
- positive rate of SA-β-Gal staining ([10]; PSC27, 50 μg/mL BLEO 12 h, 7-10 days later, vs CTRL): significant increase
- BrdU incorporation rate ([10]; PSC27, BLEO treated vs CTRL): greatly reduced
- DNA damage repair foci (DDR foci) ([10]; PSC27, BLEO treated vs CTRL): significantly increased
